Experimental data: patent publication US8293256B2, “Sulfamide derivatives and cosmetic use thereof” (L'Oreal, priority 2004, dated 2012)

Experiments:
[1] = system: stratum corneum; assay: Dermometer: mechanical measurement of the plasticizing effect (modulus of elasticity); details: 30° C., 75% relative humidity, 3% aqueous solution (compounds 9 and 15 in isopropyl N-lauroyl sarcosinate), mean ± standard deviation, 6 to 10 samples
Description: (§1) Two tests were performed to evaluate the moisturizing potential of the compounds of the invention formulated in an aqueous 3% solution (except for compounds 9 and 15, which were evaluated in a solution of isopropyl N-lauroyl sarcosinate).
Dermometer, mechanical measurement of the plasticizing effect (described by J. de Rigal, J-L. Leveque, International Journal of Cosmetic Science, 1982, 247-260),
The tests carried out were performed under standard conditions on stratum corneum in a room with regulated temperature and humidity (T=30° C. and RH=75%). The modulus of elasticity measurements are performed on each control specimen and then 2 hours and 20 hours after application of the treatment. The relative variation in the modulus allows assessment of the plasticizing effect of the active agent on the stratum corneum.
The mean and the standard deviation were calculated on 6 to 10 samples.

[2] = system: stratum corneum; assay: Transepidermal Water Loss (TWL) across isolated defatted stratum corneum (Evaporimeter EP1); details: 40% relative humidity, 30° C., 3% aqueous solution (compounds 9 and 15 in isopropyl N-lauroyl sarcosinate), mean ± standard deviation, 8 samples
Description: as §1
Transepidermal Water Loss (TWL), evaluation of the changes in barrier function of the stratum corneum.
Transepidermal water loss is a physiological phenomenon of diffusion of water vapour across the horny layer. It results from the presence of a high pressure gradient of water vapour between the internal and external media of the body. The TWL depends on the integrity of the barrier function of the stratum corneum. The machine evaluating the TWL (Evaporimeter EP1, Servomed) measures the flow of water that diffuses passively across the stratum corneum (g/m^2/h).
The isolated stratum is placed (inner face) on a water tank and equilibrated in a room regulated at 40% relative humidity (T=30° C.). Before the measurement, the stratum corneum is defatted via a two-hour treatment in a mixture of chloroform and methanol (2 v/lv). For each measurement, the TWL is measured on the stratum corneum before treatment and then 2 and 20 hours after application of the treatment. […] The measurements are analysed in pairs. […]
The mean and the standard deviation were calculated on 8 samples distributed over 2 batches of stratum corneum.

melting point [°C] | Compound | Relative variation in the modulus of elasticity of stratum corneum ([1]; 2 h after application) [%] | Relative variation in the modulus of elasticity of stratum corneum ([1]; 20 h after application) [%] | Relative variation of the TWL measurements ([2]; 2 h after application) [%] | Relative variation of the TWL measurements ([2]; 20 h after application) [%]
76 to 77.5 | C[Si](C)(C)C(NS(N)(=O)=O)[Si](C)(C)C | – | – | – | –
– | NC(N)=O [3% urea in water, urea] | −72 ± 9 | −83 ± 7 | 64.3 ± 26.9 | 48.3 ± 24.5
78 to 82 | NS(=O)(=O)NCCOS(N)(=O)=O [Compound 17, 2-[(aminosulfonyl)amino]ethyl sulfamate] | – | – | – | –
